Several values for one entry are separate records, joined by “and”; a condition that tells them apart may be missing. Equal entries are not always repeated.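 1) Cells in 96-well plates. 2) Compound, 48 h, 5 concentrations. 3) Linear interpolation between surrounding doses. 4) Unreached endpoint = highest concentration. GI50 marks 50% less growth. TGI: total growth inhibition.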
Columns and labels:
Assay in all cases: NCI anticancer screen, dose series, 48 h
[1] = tested on: MOLT-4 leukemia
[2] = tested on: NCI-H460 lung
[3] = tested on: EKVX NSCLC
[4] = tested on: HCC-2998 colon
[5] = tested on: SK-OV-3 ovarian
[6] = tested on: U251 CNS
[7] = tested on: MDA-MB-231 breast
[8] = tested on: SNB-19 CNS
[9] = tested on: HCT-15 colon
[10] = tested on: RPMI-8226 leukemia

SMILES	GI50 [1]	TGI [1]	GI50 [2]	TGI [2]	GI50 [3] [µM]	TGI [3]	GI50 [4]	TGI [4]	GI50 [5] [µM]	TGI [5]	GI50 [6] [µM]	TGI [6] [µM]	GI50 [7]	TGI [7] [µM]	GI50 [8] [µM]	TGI [8]	GI50 [9]	TGI [9]	GI50 [10] [µM]	TGI [10] [µM]
c1cc(-c2nnc(SSc3ncnc4nc[nH]c34)o2)ccn1	1.23 µM	> 100 µM	5.15 µM	> 100 µM	24.4	> 100 µM	3.38 µM	> 100 µM	0.45	> 100 µM	7.22	> 100	4.45 µM	> 100	78.4	> 100 µM	2.8 µM	> 100 µM	1.32	> 100
CSc1ncc(Br)c(Sc2nc(N)nc3nc[nH]c23)n1			2.15 µM	13.3 µM	3.07	55.1 µM	2.56 µM	16.2 µM	1.62	10.3 µM	10.3	57	2.39 µM	58.3	22.3	> 100 µM	3.18 µM	50.8 µM		
CN1CCN(CCOc2ccc(-c3cnc4c(-c5cccc(F)c5)cnn4c3)cc2)CC1	2.15 µM	4.82 µM	1.72 µM	3.19 µM	1.72	3.45 µM	1.7 µM	3.28 µM			1.64	3.57	1.71 µM	3.55	1.72	3.8 µM	1.52 µM	2.92 µM	1.85	5.25
CC1=C2C(=CC(C)(C)[C@@H]2O)C(=O)[C@](C)(O)C12CC2	0.0137 µM	0.134 µM and < 0.0208 µM	0.00575 µM	0.0437 µM and < 0.0311 µM	0.0409	0.17 µM and 0.221 µM	0.0237 µM	0.079 µM and 0.0423 µM	0.0294	0.213 µM and 0.0676 µM	0.0169		0.0513 µM		0.0523	0.371 µM and 0.279 µM	0.00514 µM			
CCCn1cnc2c(SCC(=O)O)nc(N)nc21				> 100 µM		> 100 µM		> 100 µM		> 100 µM		> 100		> 100		> 100 µM		> 100 µM		> 100
CCN(Cc1cc(F)ccc1F)c1ccc(CO)c(Cl)c1	18.1 µM	53.8 µM	0.177 µM	10.8 µM			6.37 µM	21.7 µM	8.94	29.1 µM	0.788	17.1	13.6 µM	29.1	20.2	80.3 µM	12.8 µM	32.3 µM	2.24	30.3
C[Si](C)(c1ccc(C(=O)O)cc1)c1ccc(C(=O)O)cc1		> 100 µM		> 100 µM		> 100 µM				> 100 µM		> 100		> 100		> 100 µM		> 100 µM		> 100
NCCCCC1NC(=O)C(CC(=O)O)NC(=O)CNC(=O)C(CCCN=C(N)N)NC(=O)C(N)CSSCC(C(=O)O)NC(=O)C(CC(=O)O)NC(=O)C2CCCN2C(=O)CNC1=O (stereo not drawn)			> 100 µM	> 100 µM	> 100	> 100 µM	> 100 µM	> 100 µM	> 100	> 100 µM	> 100	> 100	> 100 µM	> 100	> 100	> 100 µM	> 100 µM	> 100 µM		
COc1ccc(Nc2nc3ccccc3c3occc23)cc1			> 50 µM	> 50 µM	9.96	> 50 µM	5 µM	11.1 µM	0.005	9.95 µM	5.13	11.7	1.34 µM	10.3	7.62	16.5 µM	2.95 µM	10.7 µM	8.35	22.6
CCOC(=O)c1c(C)n(Cc2ccc(Cl)cc2Cl)c2c1cc1oc(=O)c(=O)n3cnc2c13	3.99 µM	20.7 µM	7.78 µM	20 µM	23.2	43.3 µM			23.5	38.3 µM	14.7	27.9	15.7 µM	31.4	17.4	32.1 µM	13.7 µM	27.3 µM	6.32	21.8
Cc1cc(C)c2c(n1)sc1c(N)ncnc12	> 25 µM	> 25 µM	> 25 µM	> 25 µM			> 25 µM	> 25 µM	> 25	> 25 µM	> 25	> 25	> 24 µM	> 25	> 25	> 25 µM	> 25 µM	> 25 µM	> 25	> 25
O=C(/C=C/c1ccc(O)c(O)c1)NCc1c[nH]c2ccccc12	25.8 µM	> 100 µM	50.1 µM	> 100 µM	41.5	> 100 µM	35.7 µM	76.1 µM			74	> 100	75.9 µM	> 100	> 100	> 100 µM	44.2 µM	> 100 µM	57.9	> 100
Cc1nc2ccc(Br)cc2c(=O)n1-c1ccc(NC2OCC(O)C(O)C2O)cc1 (stereo not drawn)	19.6 µM and 71.2 µM	> 100 µM	47.2 µM and > 100 µM	> 100 µM		> 100 µM	19.1 µM and > 100 µM	40.4 µM and > 100 µM	> 100	> 100 µM			47.6 µM and > 100 µM	> 100		> 100 µM	19.7 µM and > 100 µM	43.6 µM and > 100 µM		
Cc1cc(Nc2nc(C(=O)Nc3ccccc3)nc3ccccc23)n[nH]1	9.75 µM	> 25 µM	2.29 µM	> 25 µM			17.7 µM	> 25 µM	12.8	> 25 µM	5.71	> 25	13.6 µM	> 25	> 25	> 25 µM	1.39 µM	> 25 µM	12.5	> 25
CC1CN(S(=O)(=O)c2oc(-c3ccc(Cl)cc3)nc2C#N)CC(C)O1 (stereo not drawn)	1.19 µM	4.5 µM	11.5 µM	26 µM	7.34	27.9 µM	2.27 µM	5.43 µM	25.1	70.6 µM	9.4	22.7	1.91 µM	3.8	12.5	25 µM	1.41 µM	3.04 µM		

Reference: PubChem BioAssay (NCI)
